Laboratory results: US20250197799A1, “CELLS DERIVED FROM POLYPEDILUM VANDERPLANKI AND ODOR SENSOR EQUIPPED THEREWITH” (University of Maryland, College Park, priority 2022, published 2025)

Columns and labels:
[1] = target: T1, Orco-Or47a (Drosophila melanogaster, UniProt P81921+Q9VNB5); assay: Response of BAM-immobilized Orco-Or47a stable expression cell line; type: cell-based; parameters: remnant residues; expressed in transfected cells; host or cells: Pv11 cells (Polypedilum vanderplanki), CRIS-PITCh knock-in at the Pv.00443 locus downstream of the 121 promoter, Zeocin selection and single-cell sorting; settings: Pv11-GCaMP6f-Orco-Or47a stable expression cell line immobilized with BAM
T1 sequence (Q9VNB5 1-486): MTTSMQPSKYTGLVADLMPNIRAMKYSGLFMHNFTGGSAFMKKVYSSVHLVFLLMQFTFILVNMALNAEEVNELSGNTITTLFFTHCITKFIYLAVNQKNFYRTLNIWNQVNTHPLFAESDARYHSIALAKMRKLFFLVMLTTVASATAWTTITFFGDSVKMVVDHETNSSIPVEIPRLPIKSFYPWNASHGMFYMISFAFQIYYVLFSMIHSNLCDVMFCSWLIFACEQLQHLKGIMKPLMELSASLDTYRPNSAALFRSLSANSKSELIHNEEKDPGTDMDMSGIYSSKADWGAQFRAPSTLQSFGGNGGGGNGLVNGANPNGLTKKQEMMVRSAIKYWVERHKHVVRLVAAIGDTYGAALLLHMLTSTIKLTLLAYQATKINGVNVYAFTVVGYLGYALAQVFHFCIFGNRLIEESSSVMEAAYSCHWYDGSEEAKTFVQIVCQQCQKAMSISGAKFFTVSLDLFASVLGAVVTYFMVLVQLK
T1 sequence (P81921 1-385): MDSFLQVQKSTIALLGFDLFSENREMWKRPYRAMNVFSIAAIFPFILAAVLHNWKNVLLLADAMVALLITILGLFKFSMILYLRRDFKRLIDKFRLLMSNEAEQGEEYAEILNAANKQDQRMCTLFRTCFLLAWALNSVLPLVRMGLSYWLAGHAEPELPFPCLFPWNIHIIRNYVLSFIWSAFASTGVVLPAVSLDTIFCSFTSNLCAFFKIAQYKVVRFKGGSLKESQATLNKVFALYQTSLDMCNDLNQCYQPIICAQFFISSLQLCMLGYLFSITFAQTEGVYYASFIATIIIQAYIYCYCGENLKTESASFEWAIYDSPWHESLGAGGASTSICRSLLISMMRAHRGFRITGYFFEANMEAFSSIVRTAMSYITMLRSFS
Source text: 8.1 Pv11 cell immobilization. A cell membrane modifier (BAM: Biocompatible Anchor for cell Membrane) was used to fix the stable expression cell line obtained above. BAM consists of a hydrophilic PEG chain, an NHS group, and a hydrophobic oleyl group; by bringing BAM into contact with a collagen-coated dish, the NHS group binds to collagen, and the oleyl group interacts with the cell membrane through hydrophobic interactions, allowing cells to adhere. BAM (SUNBRIGHT OE-040CS, Yuka Sangyo Co., Ltd.) was dissolved in DMSO (Fujifilm Wako Pure Chemical Industries) to a concentration of 10 mM. The 10 mM BAM solution was adjusted to DPBS(-) (Thermo Fisher) to a final concentration of 100 μM, 100 μl was dropped onto a collagen 1-coated 48-well microplate (IWAKI) and incubated at 37° C. for 1 hour. The BAM solution was removed, washed once with DPBS(-) (Thermo Fisher) and five times with MilliQ, and allowed to stand still to evaporate water droplets. The Pv11 cell suspension was centrifuged at 700 g for 3 minutes, the supernatant was removed, the cell pellet was suspended in DPBS(-) (Thermo Fisher) and dropped onto a BAM-coated dish. […]
8.2 Functional confirmation of exogenous membrane proteins in fixed cells. […] Each substance was reacted with each cell in the same manner as in 3.2 above, and the fluorescence intensity was measured. […]

[2] = target: T2, Orco and Or47a (Drosophila melanogaster, UniProt P81921+Q9VNB5); assay: Fluorescence on stimulation of Pv11 transient expression strain (GCaMP6f, Orco, Or47a); type: cell-based; settings: fluorescence microscope, DMSO negative control
T2 construct: expressed in transfected cells; host or cells: Pv11 cells (Polypedilum vanderplanki)
T2 sequence (Q9VNB5 1-486): T1 sequence (Q9VNB5 1-486)
T2 sequence (P81921 1-385): T1 sequence (P81921 1-385)
Source text: 1. Transient expression strain preparation. GCaMP6f cDNA was amplified by PCR in a conventional manner, and a pPv121-GcaMP6f vector was produced by inserting the amplified DNA sequence (SEQ ID NO: 2) encoding GcaMP6f downstream of a 121 promoter of a pPv121-MCS vector (Tokumoto et. Al., doi: https://doi. Org/10.1101/2020.05.29.123570 “Development of a Tet-On inducible expression system for the anhydrobiotic cell line, Pv11”). Similarly, the cDNA of Orco derived from Drosophila melanogaster was amplified by PCR by a conventional method, and a pPv121-Orco vector was generated by inserting the amplified Orco-encoding DNA sequence (SEQ ID NO:3) downstream of the 121 promoter of the pPv121-MCS vector. […]
The resulting pPv121-GcaMP6f vector, pPv121-Orco vector, and pPv121-Or47a vector were simultaneously transfected to Pv11 cells (see Miyata Y., et. Al, Scientific Reports, 9 (1), 7004. (2019)), and a Pv11 transient expression strain was produced that transiently expressed the GaMP6f, Orco, and Or47a proteins. If the membrane proteins Orco and Or47a were expressed and GcaMP6f was expressed in the cytoplasm, then by stimulating Pv11 transient expression strains with Orco or Or47a agonists or ligands, calcium ion influxed into the cells, and the fluorescence of GcaMP6f was observed. […]

| Compound | response (fluorescence intensity) of immobilized cells [1] | fluorescence of GCaMP6f on stimulation [2] |
| --- | --- | --- |
| CCc1ccc(NC(=O)CSc2nnc(-c3cccnc3)n2CC)cc1 [VUAA1, N-(4-ethylphenyl)-2-{[4-ethyl-5-(pyridin-3-yl)-4H-1,2,4-triazol-3-yl]sulfanyl}acetamide] | responded | fluorescence was observed |
| CCCCCOC(C)=O [pentyl acetate] | responded | fluorescence was observed |
